Laboratory results reported in US20250268873A1, “COMBINATION OF DUAL ATM AND DNA-PK INHIBITORS AND IMMUNOTHERAPEUTIC AGENTS FOR USE IN CANCER THERAPY” (XRAD THERAPEUTICS, INC., priority 2021, published 2025).

Columns and labels:
TBK1 = assay: Immunoblot of TBK1 phosphorylation in HCT116 cells; format: cell-based, human; conditions: HCT116 p53 wild-type and p53−/− cells; 1 μM single agents, combination 0.5 or 1 micromolar each
From the text: Antibodies recognizing phosphorylated/activated ATM (S1981, #ab81292) and DNA-PKcs (S2056, #ab18192) were purchased from Abcam Biotechnology (Cambridge, MA). Antibodies to ATM (#A1106) and DNA-PKcs (#ab1832) were from Sigma and Abcam, respectively. Phospho-KAP1 (S824, #A300-767A) and KAP1 (A700-014) antibodies were from Bethyl Labs (Montgomery, TX). Phospho-TBK1 (#5483), cGAS (#15102), and pSTING (S366, #19781S) antibodies were from Cell Signaling Technology (CST) (Danvers, MA). STING (PA5-23381) antibodies were from ThermoFisher Scientific (Waltham, MA), and actin (#A5316) antibodies were from Sigma. All antibodies were diluted 1:1000 with the exception of actin which was diluted 1:3000 in 1×TBST (1×TBS-10×TBS, (Corning, 46-012-CM), 0.05% Tween-20 (P7949) Sigma and 1% BSA. Secondary antibodies used were (a) Li-Cor method-Goat anti-Rabbit (926-3221) and Goat anti-Mouse (926-68020) Li-Cor (b) ECL method: Anti-rabbit IgG, HRP-linked (#7074S), CST.
Cells were pretreated with Compound 569 at 20, 100, 500, or 1000 nM or DMSO for 30 min and then irradiated with 0 or 10 Gy (XRAD 160, Precision X Ray) as shown in FIG. 1. In FIG. 3, cells were pretreated with Compound 569 at 1 μM, ATMi (AZD0156) at 1 μM, DNA-PKi (peposertib) at 1 μM as single agents or DMSO or with ATMi and DNA-PKi in combination at 0.5 micromolar each or at 1 micromolar each for 30 min and then irradiated with 0 or 10 Gy (XRAD 160, Precision X Ray) as shown in FIG. 1. One hour after IR, cells were lysed in RIPA buffer ([…], pH 8.0, 150 mM NaCl, 0.1% SDS, 0.5% sodium deoxycholate, 1% IGEPAL® CA-630 (Sigma, 18896) for 20 min at 4° C. in the presence of protease and phosphatase inhibitor cocktails (Roche, #04693159001 & #04906837001). Cell lysates were centrifuged at 13,200 g for 10 min at 4° C. and supernatants were analyzed for protein content using BCA assay (Pierce™ BCA Protein Assay Kit, cat #23227, ThermoFisher Waltham, MA 02451) and equal amounts of protein/lane were used for subsequent immunoblot analyses. Proteins were denatured by adding NuPAGE LSD Sample Buffer [4×] […]

MCF7 cells = assay: Clonogenic Survival Assay in MCF7 cells; format: cell-based, human; conditions: for Fold 2 Gy / Fold 4 Gy: vs DMSO; for % survival @ 0 Gy w/out IR: no IR
Protocol: Human cancer cell lines, including MCF-7 human breast carcinoma cell line and A549 human lung carcinoma cell line, and HCT116 p53 wild-type and HCT116 p53−/− cell lines were obtained from ATCC. MCF7 and HCT116 cells were cultured in Dulbecco's modified Eagle's medium (DMEM (Gibco #11995-065). MDA-MB-231 human triple negative breast cancer cell line and FADU, human head and neck squamous cell carcinoma line, were obtained from Charles River Laboratories (Morrisville, NC). MDA-MB-231 and A549 cells were cultured in RPMI 1640 medium (Gibco, 11875-093). FADU cells were cultured in Minimum Essential Medium α (MEM α) (Gibco, 12571-063) supplemented with 1 mM Sodium Pyruvate (Gibco, 11360-070), 1×MEM Non-Essential Amino Acids (Gibco, 11140-050). All cell lines were supplemented with 10% fetal bovine serum (FBS) (Corning, 35-010-CV) and 1× Antibiotic-Antimycotic (Gibco #15240-062) and were grown at 37° C. in 5% CO2. All cell lines were authenticated by short tandem repeat profiling and tested negative for mycoplasma.
This assay was performed with Compound 569 as an exemplary Formula (I) compound. Cells were plated in 6-well plates at different densities: 250 cells for no IR control, 5000 cells for 2 Gy of IR and 10000 cells for 4 Gy of IR and cultured overnight. The next day, MCF7 cells were preincubated with compound 569 at 100, 250, 500, or 1000 nM or DMSO for 30 min before being exposed to increasing doses of IR (0, 2, or 4 Gy). The A549 cells were incubated with Compound 569 at 500 or 1000 nM or with DMSO for 30 min before being exposed to increasing doses of IR (0, 2, or 4 Gy). After IR, cells were continuously incubated with DMSO or compound 569 for 5 h before the culture medium was removed and cells were washed with PBS. Cells were cultured in complete medium in the absence of inhibitor for 9 days. Then cells were stained (PBS, […], 0.1% crystal violet) rinsed with water and dried.

## CC(C)NCCOc1ncc(-c2cc3c4c(cnc3cc2F)N(C)C(=O)C42CCC2)cc1NS(C)(=O)=O [Compound 569, N-(5-(7′-Fluoro-3′-methyl-2′-oxo-2′,3′-dihydrospiro[cyclobutane-1,1′-pyrrolo[2,3-c]quinolin]-8′-yl)-2-(2-(isopropylamino)ethoxy)pyridin-3-yl)methanesulfonamide]
TBK1
  phosphorylation of TBK1: more potent activator of TBK1 phosphorylation than either of the single target kinase inhibitors
MCF7 cells; 5-h exposure
  cellular toxicity in the absence of IR: without evidence of cellular toxicity
MCF7 cells; 5-h exposure, 100-1000 nM, 0, 2, 4 Gy
  radiosensitization: significant degree of radiosensitization
MCF7 cells; 569 100 nM
  Clonogenic survival ratio 0 Gy: 1.000
  Clonogenic survival ratio 2 Gy: 0.0882
  Fold 2 Gy: 7.5
  Clonogenic survival ratio 4 Gy: 0.0146
  Fold 4 Gy: 21.8
  % survival @ 0 Gy w/out IR: 92%
MCF7 cells; 569 250 nM
  Clonogenic survival ratio 0 Gy: 1.000
  Clonogenic survival ratio 2 Gy: 0.0610
  Fold 2 Gy: 10.8
  Clonogenic survival ratio 4 Gy: 0.00588
  Fold 4 Gy: 54.0
  % survival @ 0 Gy w/out IR: 97%
MCF7 cells; 569 500 nM
  Clonogenic survival ratio 0 Gy: 1.000
  Clonogenic survival ratio 2 Gy: 0.0451
  Fold 2 Gy: 14.7
  Clonogenic survival ratio 4 Gy: 0.00347
  Fold 4 Gy: 91.5
  % survival @ 0 Gy w/out IR: 105%
MCF7 cells; 569 1000 nM
  Clonogenic survival ratio 0 Gy: 1.000
  Clonogenic survival ratio 2 Gy: 0.0301
  Fold 2 Gy: 22.0
  Clonogenic survival ratio 4 Gy: 0.0016
  Fold 4 Gy: 198
  % survival @ 0 Gy w/out IR: 100%
